Like-named read-outs stand apart in the source and are kept apart here.
Legend:
human 5-HT6 receptor = human 5-HT6 receptor (Homo sapiens (Human), UniProt P50406); test: radioligand binding assay (SPA format), [N-methyl-3H]-LSD; details: read-out: human 5HT6 Ki, human 5-HT6 receptor membranes, 10 nM [3H]-LSD
5HT6 receptor = 5HT6 receptor (Rattus norvegicus (Rat), UniProt P31388); test: ex vivo receptor occupancy measurements; assay type: in vivo; details: oral dosing at 30 mg/kg, Sprague-Dawley rats
Experimental: This table illustrates representative compounds tested for 5HT6 affinity in the human binding assay. […] Example 158 had 42% occupancy of the 5HT6 receptor after oral dosing at 30 mg/kg using ex vivo receptor occupancy measurements in Sprague-Dawley rats.

human 5-HT6 receptor, sequence (P50406 whole entry): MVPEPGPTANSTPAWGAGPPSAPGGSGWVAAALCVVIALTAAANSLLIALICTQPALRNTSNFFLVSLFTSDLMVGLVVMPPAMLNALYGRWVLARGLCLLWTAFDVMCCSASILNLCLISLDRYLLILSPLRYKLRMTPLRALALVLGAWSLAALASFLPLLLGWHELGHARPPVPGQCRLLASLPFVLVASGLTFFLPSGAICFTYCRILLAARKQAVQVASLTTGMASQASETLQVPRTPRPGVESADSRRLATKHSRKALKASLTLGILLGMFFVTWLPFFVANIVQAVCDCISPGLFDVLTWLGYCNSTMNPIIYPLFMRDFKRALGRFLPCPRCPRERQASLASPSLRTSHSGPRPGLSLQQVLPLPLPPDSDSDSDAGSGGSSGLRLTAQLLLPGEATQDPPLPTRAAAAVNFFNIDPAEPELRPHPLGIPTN
5HT6 receptor, sequence (P31388 whole entry): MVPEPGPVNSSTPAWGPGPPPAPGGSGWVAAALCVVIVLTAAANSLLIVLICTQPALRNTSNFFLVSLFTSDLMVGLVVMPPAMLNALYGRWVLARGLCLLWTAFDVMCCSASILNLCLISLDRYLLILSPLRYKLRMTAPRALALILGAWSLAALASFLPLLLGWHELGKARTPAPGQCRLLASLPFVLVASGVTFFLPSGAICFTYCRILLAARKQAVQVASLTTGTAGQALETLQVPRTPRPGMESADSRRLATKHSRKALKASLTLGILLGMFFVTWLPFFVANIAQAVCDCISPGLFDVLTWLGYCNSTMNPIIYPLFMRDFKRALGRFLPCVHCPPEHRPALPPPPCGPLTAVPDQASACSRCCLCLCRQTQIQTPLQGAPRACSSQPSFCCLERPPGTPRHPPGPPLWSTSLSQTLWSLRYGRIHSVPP

| Structure (SMILES) | melting point | Ki (human 5-HT6 receptor; hydrochloride) | Ki (human 5-HT6 receptor) | receptor occupancy at 30 mg/kg (5HT6 receptor) |
| --- | --- | --- | --- | --- |
| Cc1cn(S(=O)(=O)c2ccc3c(c2)c2c(n3C)CC3CCC2N3)c2ccccc12.Cl (stereo not shown) [Example 68, 2-[1-(3-Methyl)-indole]sulfonyl-5-methyl-5,6,7,8,9,10-hexahydro-7,10-epiminocyclohepta[b]indole hydrochloride] | 212 to 215 °C | 1.2 nM |  |  |
| CN1C2CCC1c1c(n(C)c3ccc(S(=O)(=O)c4ccsc4)cc13)C2.Cl (stereo not shown) [Example 70, 2-(3-thienyl)sulfonyl-5-methyl-5,6,7,8,9,10-hexahydro-7,10-N-methyl-epiminocyclohepta[b]indole hydrochloride] | 238 to 240 °C |  | 8.2 nM |  |
| Cc1cc(S(=O)(=O)c2ccccc2)cc2c3c(n(C)c12)CC1CCC3N1.Cl (stereo not shown) [Example 71, 2-Phenylsulfonyl-4,5-dimethyl-5,6,7,8,9,10-hexahydro-7,10-epiminocyclohepta[b]indole hydrochloride] | 244 to 248 °C |  | 3.3 nM |  |
| Cc1cc(S(=O)(=O)c2cccc(C(F)(F)F)c2)cc2c3c(n(C)c12)CC1CCC3N1.Cl (stereo not shown) [Example 75, 2-(3-Trifluoromethyl-phenyl)sulfonyl-4,5-dimethyl-5,6,7,8,9,10-hexahydro-7,10-epiminocyclohepta[b]indole hydrochloride] | 227 to 229 °C |  | 3.6 nM |  |
| Cc1cc(S(=O)(=O)c2cccc(OC(F)(F)F)c2)cc2c3c(n(C)c12)CC1CCC3N1.Cl (stereo not shown) [Example 76, 2-(3-Trifluoromethoxy-phenyl)sulfonyl-4,5-dimethyl-5,6,7,8,9,10-hexahydro-7,10-epiminocyclohepta[b]indole hydrochloride] | 220 to 222 °C |  | 6.9 nM |  |
| Cc1cc(S(=O)(=O)c2ccc(N)cc2)cc2c3c(n(C)c12)CC1CCC3N1.Cl (stereo not shown) [Example 77, 2-(4-Amino-phenyl)sulfonyl-4,5-dimethyl-5,6,7,8,9,10-hexahydro-7,10-epiminocyclohepta[b]indole hydrochloride] | 244 to 246 °C |  | 4.9 nM |  |
| Cc1cc(S(=O)(=O)c2cncnc2)cc2c3c(n(C)c12)CC1CCC3N1.Cl (stereo not shown) [Example 78, 2-(5-Pyrimidine)sulfonyl-4,5-dimethyl-5,6,7,8,9,10-hexahydro-7,10-epiminocyclohepta[b]indole] | 226 to 228 °C |  | 794 nM |  |
| Cl.Cn1c2c(c3cc(S(=O)(=O)c4ccccc4)cc(F)c31)C1CCC(C2)N1 (stereo not shown) [Example 81, 2-(Phenylsulfonyl)-4-fluoro-5-methyl-5,6,7,8,9,10-hexahydro-7,10-epiminocyclohepta[b]indole hydrochloride] | 251 to 256 °C (dec.) |  | 13 nM |  |
| Cl.Cn1c2c(c3cc(S(=O)(=O)c4ccccc4)cc(Cl)c31)C1CCC(C2)N1 (stereo not shown) [Example 82, 2-Phenylsulfonyl-4-chloro-5-methyl-5,6,7,8,9,10-hexahydro-7,10-epiminocyclohepta[b]indole hydrochloride] | 258 to 264 °C (dec.) |  | 22 nM |  |
| CCOc1cc(S(=O)(=O)c2ccccc2)cc2c3c(n(C)c12)CC1CCC3N1.Cl (stereo not shown) [Example 84, 2-Phenylsulfonyl-4-ethoxy-5-methyl-5,6,7,8,9,10-hexahydro-7,10-epiminocyclohepta[b]indole hydrochloride] | 182 to 184 °C | 1 nM |  |  |
| Cl.Cn1c2c(c3cc(S(=O)(=O)c4ccccc4)cc(OCc4ccccc4)c31)C1CCC(C2)N1 (stereo not shown) [Example 86, 2-Phenylsulfonyl-4-benzyloxy-5-methyl-5,6,7,8,9,10-hexahydro-7,10-epiminocyclohepta[b]indole hydrochloride] | 178 to 180 °C |  | 14 nM |  |
| CC(C)n1c2c(c3cc(S(=O)(=O)c4ccccc4)ccc31)C1CCC(C2)N1.Cl (stereo not shown) [Example 87, 2-Phenylsulfonyl-5-isopropyl-5,6,7,8,9,10-hexahydro-7,10-epiminocyclohepta[b]indole hydrochloride] | 260 to 265 °C | 350 nM |  |  |
| Cl.O=S(=O)(c1ccccc1)c1ccc2c(c1)c1c(n2-c2ccccc2)CC2CCC1N2 (stereo not shown) [Example 88, 2-Phenylsulfonyl-5-phenyl-5,6,7,8,9,10-hexahydro-7,10-epiminocyclohepta[b]indole hydrochloride] | 195 to 200 °C |  | 350 nM |  |
| Cl.O=S(=O)(c1ccccc1)c1ccc2c(c1)c1c(n2CCO)CC2CCC1N2 (stereo not shown) [Example 89, 2-Phenylsulfonyl-5-(2-hydroxy)ethyl-5,6,7,8,9,10-hexahydro-7,10-epiminocyclohepta[b]indole hydrochloride] | 185 to 190 °C |  | 432 nM |  |
| CCn1c2c(c3cc(S(=O)(=O)c4ccccc4)ccc31)C1CCC(C2)N1.Cl (stereo not shown) [Example 90, 2-Phenylsulfonyl-5-ethyl-5,6,7,8,9,10-hexahydro-7,10-epiminocyclohepta[b]indole hydrochloride] | 200 to 204 °C (dec.) |  | 52 nM |  |
| Cl.Cn1c2c(c3ccc(S(=O)(=O)c4ccccc4)cc31)C1CCC(C2)N1 (stereo not shown) [Example 91, 3-Phenylsulfonyl-5-methyl-5,6,7,8,9,10-hexahydro-7,10-epiminocyclohepta[b]indole hydrochloride] | 252 to 256 °C |  | 115 nM |  |
| Cn1c2c(c3cc(S(=O)(=O)c4cccc(Cl)c4)ccc31)C1CCC(C2)N1 (stereo not shown) [Example 158] |  |  | 1.9 nM | 42% |

From patent publication US8575186B2, “Epiminocycloalkyl[b] indole derivatives as serotonin sub-type 6 (5-HT6) modulators and uses thereof” (Albany Molecular Research, Inc., priority 2009, dated 2013)
